test system: rice leafroller (Cnaphalocrocis medinalis); assay: Insecticidal effect on rice leafroller (Test Example 3); type: in vivo; conditions: 500 ppm; rice lamina immersed; third-instar larvae of rice leafroller; four days after inoculation; 25° C., humidity 70%
Description: Insecticidal effect on rice leafroller (Cnaphalocrocis medinalis)
After air-drying, the lamina was placed in a plastic Petri dish with a diameter of 9 cm whose bottom had been covered with a wetted filter paper. The lamina was inoculated with third-instar larvae of rice leafroller, after which the dish was allowed to stand in a room thermostated at 25° C. and having a humidity of 70%. Four days after the inoculation, the dead and alive were counted and the insecticidal effect was judged according to the criterion shown in Test Example 1. The test was carried out with triplicate groups of 10 insects.

SMILES	Insecticidal effect, Test Example 3
CC(C)NC(=O)c1ccccc1C(=O)Nc1ccc(C(F)(F)C(F)(F)C(F)(F)C(F)(F)F)cc1 [compound 28]	A (100)
Cc1ccc(NC(=O)c2ccccc2C(=O)NC(C)C)c(C)c1 [compound 44]	A (100)
COC(=O)c1ccc(NC(=O)c2ccccc2C(=O)NC(C)C)c(C)c1 [compound 71]	D (79-50)
CCOP(=O)(OCC)c1ccc(NC(=O)c2ccccc2C(=O)NC(C)C)c(C)c1 [compound 81]	A (100)
CC(C)NC(=O)c1c(I)cccc1C(=O)Nc1ccc(C(F)(F)F)cc1 [compound 349]	A (100)
CC(C)NC(=O)c1c(I)cccc1C(=O)Nc1ccc(OC(F)(F)F)cc1 [compound 352]	A (100)
CC(C)NC(=O)c1cccc(I)c1C(=O)Nc1ccc(C(F)(F)F)cc1 [compound 415]	A (100)
CC(C)NC(=O)c1cccc(I)c1C(=O)Nc1ccc(OC(F)(F)F)cc1 [compound 418]	A (100)

test system: diamondback moth (Plutella xylostella); assay: Insecticidal effect on diamondback moth (Test Example 1); type: in vivo; conditions: diamondback moth; judged by the criterion of Test Example 1
In short: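 Chinese cabbage seedlings carrying eggs laid by released adult moths were immersed in treatment, air-dried and held at 25° C. Hatched insects were counted six days after immersion, and mortality was calculated and scored against a fixed criterion. Three replicate groups of 10 insects were used.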

SMILES	Insecticidal effect (Test Example 1), judged from mortality
Cc1cc(C(F)(F)C(F)(F)F)ccc1NC(=O)c1c(Cl)cccc1C(=O)N[C@@H](CO)c1ccccc1 [compound 1443]	A (100)
Cc1cc(C(F)(F)C(F)(F)F)ccc1NC(=O)c1c(Cl)cccc1C(=O)N[C@@H](C)CO [compound 1446]	A (100)
CCCNC(=O)c1cccc(I)c1C(=O)Nc1ccc(OC(F)F)cc1C [compound 1451]	A (100)
Cc1cc(OC(F)F)ccc1NC(=O)c1c(I)cccc1C(=O)NC1CC1 [compound 1453]	A (100)
Cc1cc(C(F)(F)C(F)(F)F)ccc1NC(=O)c1c(Cl)cccc1C(=O)NCc1ccccc1F [compound 1469]	A (100)
Cc1cc(C(F)(F)C(F)(F)F)ccc1NC(=O)c1cccc(Cl)c1C(=O)NCC(O)c1ccccc1 (stereo not drawn) [compound 1476]	A (100)
CCNC(=O)c1cccc(F)c1C(=O)Nc1ccc(C(F)(F)C(F)(F)F)cc1F [compound 1511]	A (100)
CCCNC(=O)c1cccc(F)c1C(=O)Nc1ccc(C(F)(F)C(F)(F)F)cc1F [compound 1513]	A (100)
CC(C)NC(=O)c1cccc(F)c1C(=O)Nc1ccc(C(F)(F)C(F)(F)F)cc1F [compound 1515]	A (100)
Cc1cc(C(F)(F)C(F)(F)F)ccc1NC(=O)c1c(I)cccc1C(=O)N[C@@H](C)CO [compound 1518]	A (100)
Cc1cc(-c2ccc(OC(F)(F)F)cc2)ccc1NC(=O)c1cccc(I)c1C(=O)NC(C)C [compound 1521]	A (100)
Cc1cc(C(F)(F)C(F)(F)F)ccc1NC(=O)c1c(Cl)cccc1C(=O)NCc1ccc(OC(F)(F)F)cc1 [compound 1577]	A (100)
Cc1cc(C(F)(F)C(F)(F)F)ccc1NC(=O)c1cccc(Cl)c1C(=O)N(C)Cc1ccccc1F [compound 1579]	A (100)
Cc1cc(C(F)(F)C(F)(F)F)c(C)cc1NC(=O)c1cccc(I)c1C(=O)NC(C)(C)C [compound 1611]	A (100)
CC(C)NC(=O)c1c(I)cccc1C(=O)Nc1cccc(-c2csc(C(F)(F)F)n2)c1 [compound 1658]	A (100)
Cc1cc2c(cc1NC(=O)c1cccc(Cl)c1C(=O)NC(C)C)OC(F)(F)O2 [compound 1661]	A (100)
CC(C)(C)NC(=O)c1c(I)cccc1C(=O)Nc1ccc2oc(C(F)(F)F)nc2c1Cl [compound 1683]	A (100)
CC(C)c1cc(C(F)(C(F)(F)F)C(F)(F)F)ccc1NC(=O)c1cccc(I)c1C(=O)NC(C)(C)C [compound 1692]	A (100)
CCOc1cc(C(F)(C(F)(F)F)C(F)(F)F)ccc1NC(=O)c1cccc(I)c1C(=O)NC(C)(C)C [compound 1694]	A (100)
Cc1cc(NC(=O)c2cccc(I)c2C(=O)NC(C)C)c(Br)cc1C(F)(C(F)(F)F)C(F)(F)F [compound 1698]	A (100)
CC(C)NC(=O)c1c(I)cccc1C(=O)Nc1ccc(C(F)(C(F)(F)F)C(F)(F)F)cc1-c1ccccc1 [compound 1767]	A (100)
Cc1cc(C(F)(F)C(F)(F)F)ccc1NC(=O)c1c(SC(F)(F)F)ccc(Cl)c1C(=O)NC(C)C [compound 1802]	A (100)
Cc1cc(C(F)(F)C(F)(F)F)ccc1NC(=O)c1cccc([S+]([O-])C(F)(F)F)c1C(=O)NC(C)C (stereo not drawn) [compound 1804]	A (100)
Cc1cc(C(F)(C(F)(F)F)C(F)(F)F)ccc1NC(=O)c1cccc([S+]([O-])C(F)(F)F)c1C(=O)NC(C)C (stereo not drawn) [compound 1805]	A (100)

same assay, conditions: diamondback moth; mortality judged by criterion of Test Example 1

SMILES	Insecticidal effect, Test Example 1
Cc1ccccc1CNC(=O)c1cccc(Cl)c1C(=O)Nc1ccc(C(F)(F)C(F)(F)F)cc1C [compound 1338]	A (100)
Cc1ccc(CNC(=O)c2c(Cl)cccc2C(=O)Nc2ccc(C(F)(F)C(F)(F)F)cc2C)cc1 [compound 1341]	A (100)
Cc1ccc(CNC(=O)c2cccc(Cl)c2C(=O)Nc2ccc(C(F)(F)C(F)(F)F)cc2C)cc1 [compound 1342]	A (100)
COc1cccc(CNC(=O)c2c(Cl)cccc2C(=O)Nc2ccc(C(F)(F)C(F)(F)F)cc2C)c1 [compound 1345]	A (100)
COc1cccc(CNC(=O)c2cccc(Cl)c2C(=O)Nc2ccc(C(F)(F)C(F)(F)F)cc2C)c1 [compound 1346]	A (100)
COc1ccc(CNC(=O)c2c(Cl)cccc2C(=O)Nc2ccc(C(F)(F)C(F)(F)F)cc2C)cc1 [compound 1347]	A (100)
COc1ccc(CNC(=O)c2cccc(Cl)c2C(=O)Nc2ccc(C(F)(F)C(F)(F)F)cc2C)cc1 [compound 1348]	A (100)
Cc1cc(C(F)(F)C(F)(F)F)ccc1NC(=O)c1cccc(Cl)c1C(=O)NCc1ccc(Cl)cc1Cl [compound 1349]	A (100)
Cc1cc(C(F)(F)C(F)(F)F)ccc1NC(=O)c1cccc(Cl)c1C(=O)NCCc1ccccc1Cl [compound 1356]	A (100)
Cc1cc(C(F)(F)C(F)(F)F)ccc1NC(=O)c1c(Cl)cccc1C(=O)NC(C)c1ccccc1Cl (stereo not drawn) [compound 1363]	A (100)
Cc1cc(C(F)(F)C(F)(F)F)ccc1NC(=O)c1c(Cl)cccc1C(=O)NC(C)c1cccc(Cl)c1 (stereo not drawn) [compound 1365]	A (100)
Cc1cc(C(F)(F)C(F)(F)F)ccc1NC(=O)c1c(Cl)cccc1C(=O)NC(C)c1ccc(Cl)cc1 (stereo not drawn) [compound 1367]	A (100)
Cc1cc(C(F)(F)C(F)(F)F)ccc1NC(=O)c1cccc(Cl)c1C(=O)NCCOc1ccccc1Cl [compound 1368]	A (100)
Cc1cc(C(F)(F)C(F)(F)F)ccc1NC(=O)c1cccc(Cl)c1C(=O)NCCOc1ccc(Cl)cc1 [compound 1372]	A (100)
Cc1cc(C(F)(F)C(F)(F)F)ccc1NC(=O)c1c(Cl)cccc1C(=O)NCCOc1ccc(Cl)cc1 [compound 1373]	A (100)
Cc1cc(C(F)(F)C(F)(F)F)ccc1NC(=O)c1cccc(Cl)c1C(=O)NCCOc1ccccc1 [compound 1374]	A (100)
Cc1cc(C(F)(F)C(F)(F)F)ccc1NC(=O)c1cccc(Cl)c1C(=O)NCCNc1ccccc1 [compound 1376]	A (100)
Cc1cc(C(F)(F)C(F)(F)F)ccc1NC(=O)c1ccccc1C(=O)NC(CO)c1ccccc1 (stereo not drawn) [compound 1379]	A (100)
Cc1cc(C(F)(F)C(F)(F)F)ccc1NC(=O)c1c(Cl)cccc1C(=O)NCc1ccncc1 [compound 1395]	A (100)
Cc1cc(C(F)(F)C(F)(F)F)ccc1NC(=O)c1ccccc1C(=O)NCC(O)Cc1ccccc1 (stereo not drawn) [compound 1398]	A (100)
Cc1cc(C(F)(F)C(F)(F)F)ccc1NC(=O)c1c(I)cccc1C(=O)NCc1ccccc1 [compound 1401]	A (100)
Cc1cc(C(F)(F)C(F)(F)F)ccc1NC(=O)c1cccc(Cl)c1C(=O)NC(CO)c1ccc(-c2ccccc2)cc1 (stereo not drawn) [compound 1412]	A (100)
Cc1cc(OC(F)F)ccc1NC(=O)c1cccc(Cl)c1C(=O)NCc1ccccc1 [compound 1421]	A (100)
Cc1cc(OC(F)F)ccc1NC(=O)c1cccc(Cl)c1C(=O)NCc1ccccc1Cl [compound 1423]	A (100)
Cc1cc(OC(F)F)ccc1NC(=O)c1c(I)cccc1C(=O)NCc1ccccc1 [compound 1431]	A (100)
Cc1ccccc1CNC(=O)c1c(I)cccc1C(=O)Nc1ccc(OC(F)F)cc1C [compound 1434]	A (100)
Cc1cc(OC(F)F)ccc1NC(=O)c1cccc(I)c1C(=O)N(C)Cc1ccccc1 [compound 1440]	A (100)
Cc1cc(C(F)(F)C(F)(F)F)ccc1NC(=O)c1cccc(Cl)c1C(=O)N[C@@H](CO)c1ccccc1 [compound 1442]	A (100)

— patent publication US6362369B1, “Phthalic acid diamide derivatives fluorine-containing aniline compounds as starting material, agricultural and horticultural insecticides, and a method for application of the insecticides” (Nihon Nohyaku Co., Ltd., priority 1997, dated 2002)
